{
  "source": "patent US20170021002A1",
  "about": "“AUGMENTATION OF CANCER AND CANCER ENDOTHELIAL VACCINE IMMUNOGENICITY BY HISTONE DEACETYLASE INHIBITORS” (Batu Biologics, Inc., priority 2015, published 2017)",
  "key": {"[1]": {"system": "non-small cell lung cancer (NSCLC)", "conditions": "patients diagnosed with metastatic disease; cited from earlier work"}, "ValloVax™ cells [2]": {"system": "ValloVax™ cells", "assay": "Ex vivo cytotoxicity of NK cells from in vivo valproic acid treated mice to ValloVax™ cells", "type": "cell-based", "conditions": "NK cells isolated from in vivo valproic acid treated mice"}, "LLC cells": {"system": "LLC cells", "assay": "Ex vivo cytotoxicity of NK cells from in vivo valproic acid treated mice to LLC cells", "type": "cell-based", "conditions": "NK cells isolated from in vivo valproic acid treated mice"}, "[3]": {"system": "Lewis Lung Carcinoma (LLC)", "assay": "Established Lewis Lung Carcinoma tumor model", "type": "in vivo, C57BL/6 mice", "conditions": "for antitumor activity / efficacy: VPA systemically administered (100 mg/kg intraperitoneally every third day) to animals receiving ValloVax™, 100 mg/kg; for antitumor activity / efficacy / tumor killing activity / therapeutic efficacy: FIG. 5; for tumor killing activity / therapeutic efficacy: ValloVax™ pretreated in vitro with VPA, compared to standard ValloVax™, LLC bearing mice", "description": "Female C57BL/6 aged 8-12 weeks were purchased from The Jackson Laboratory. Animals were housed under conventional conditions at the Animal Care Facility, Institute for Cellular Immunology, and were cared for in accordance with the guidelines established by the Canadian Council on Animal Care. Lewis Lung Carcinoma (LLC), a murine lung carcinoma originating from C57/BL6 mice was obtained from American Type Culture Collection (ATCC). The cells were maintained in RPMI1640 supplemented with 10% fetal bovine serum, 2 mM glutamine (Gibco-BRL, Life Technologies, Inc.) and were passaged by trypsinization once cells reached 75% confluence. The cell line was cultured at 37°0 C. in a 5% CO2 incubator under fully humidified conditions.\nFor induction of tumor growth, 5×10^5 LLC cells, American Type Culture Collection (Manassas, Va.) cells were injected subcutaneously into the hind limb flank. Four weekly vaccinations of 5×10^5 test cells were administered subcutaneously on the contralateral side to which tumors were administered. Tumors were allowed to grow for 2 weeks, subsequently to which one injection of ValloVax™ or VPA-pretreated ValloVax™ was given. Valproic acid was administered every third day at a concentration of 100 mg/kg intraperitoneally. Tumor growth was assessed every 3 days by two measurements of perpendicular diameters by a caliper, and animals were sacrificed when tumors reached a size of 1 cm in any direction. Tumor volume was calculated by the following formula: (the shortest diameter^2×the longest diameter)/2."}, "[4]": {"system": "ValloVax™ cells cultured with NK-92 cells", "assay": "Killing of VPA treated ValloVax™ cells by NK-92 cell line", "type": "cell-based, human", "conditions": "FIG. 4", "method": "Cells were incubated with or without 1 mM VPA for 48 hours. NK-92 cells were added to the target cells as effector cells, and the cells were co-cultured for 4 h 37° C. To block NKG2D on NK-92 cells, 10 μg/ml anti-NKG2D mAb or mouse IgG1 isotype control antibody were added to the NK cells 30 min before co-culture. Viability was assessed by CellTiter Viability kit from Promega following the manufacturer's instructions."}, "[5]": {"system": "mixed lymphocyte reaction (PBMC with ValloVax™ cells)", "assay": "Cytokine ELISA of mixed lymphocyte reaction supernatants", "type": "cell-based, human", "conditions": "ValloVax™ treated with VPA", "method": "(§1) Peripheral blood mononuclear cells (PBMC) were isolated from buffy coats of healthy blood donors (Sanquin, Rotterdam, the Netherlands) by density gradient centrifugation using Ficoll-Paque PLUS (density 1.077 g/ml; GE Healthcare, Uppsala, Sweden). Cells were frozen at −150° C. until further use in RPMI-1640 medium with GlutaMAX™-I (Life Technologies) supplemented with 1% P/S, 10% human serum (Sanquin) and 10% dimethylsulphoxide (DMSO; Merck, Hohenbrunn, Germany).\n(§2) Mixed lymphocyte reactions (MLR) were set up with 5×10^5 responder PBMC and 5×10^3 (1:100), 5×10^4 (1:10), […] γ-irradiated (10 Gy) ValloVax™ cells in round-bottomed 96-well plates (Nunc, Roskilde, Denmark). MLR were cultured in MEM-α supplemented with 2 mM L-glutamine, 1% P/S and 10% heat-inactivated human serum for 4 days in a humidified atmosphere with 5% CO2 at 37° C.\nFor cytokine analysis supernatant was collected on day two of culture and analyzed by ELISA (R & D Systems) as per manufacturer's instructions."}, "ValloVax™ cells [6]": {"system": "ValloVax™ cells", "assay": "Viability of ValloVax™ stimulator cells in MLR (CellTiter)", "type": "cell-based, human", "conditions": "ValloVax™ cells treated with VPA, cultured with allogeneic responding cells, FIG. 2", "method": "Cells were incubated with or without 1 mM VPA for 48 hours.\nDepletion of T cells, B cells and NK cells was performed with Magnetic Activated Cell (MACS) isolation kits from Milteny Biotec following the manufacturer's instructions.\nViability was assessed by CellTiter Viability kit from Promega following the manufacturer's instructions.\nas §2"}, "[7]": {"system": "allogeneic responding lymphocytes (responder PBMC)", "assay": "Mixed lymphocyte reaction, proliferation by [3H]-thymidine incorporation", "type": "cell-based, human", "conditions": "placental endothelial stimulator cells pretreated with the agent; FIG. 1a", "method": "as §1, §2\nCell proliferation was assessed by thymidine incorporation, [^3H]-thymidine (0.25 μCi/well; PerkinElmer, Groningen, the Netherlands) was added on day 4, incubated for 8 h and its incorporation was measured using the Wallac 1450 MicroBeta Trilux (PerkinElmer).\nIt was previously reported that ValloVax™, a placental endothelial derived cellular vaccine stimulates immunity to proliferating endothelium, resulting in tumor regression. […]"}},
  "data": [
    {"molecule": "Nc1nc2[nH]cc(CCc3ccc(C(=O)N[C@@H](CCC(=O)O)C(=O)O)cc3)c2c(=O)[nH]1", "note": "[pemetrexed]", "values": [
      {"measurement": "median overall survival (OS)", "setting": "[1]", "value": 17, "unit": "months"}
    ]},
    {"molecule": "CCCC(CCC)C(=O)O", "note": "[VPA, Valproic acid]", "values": [
      {"measurement": "cytotoxicity of NK cells to ValloVax™ cells ex vivo", "setting": "ValloVax™ cells [2]", "value": "enhanced cytotoxicity"},
      {"measurement": "cytotoxicity of NK cells to LLC cells", "setting": "LLC cells", "value": "enhanced cytotoxicity"},
      {"measurement": "antitumor activity / efficacy", "setting": "[3]", "value": "synergistic antitumor activity"},
      {"measurement": "antitumor activity / efficacy", "setting": "[3]; listed as valpoic acid", "value": "enhanced antitumor efficacy"},
      {"measurement": "antitumor activity / efficacy", "setting": "[3]; listed as valproic acid", "value": "augmented efficacy against lung cancer"},
      {"measurement": "tumor killing activity / therapeutic efficacy", "setting": "[3]", "value": "did not significantly augment"},
      {"measurement": "tumor killing activity / therapeutic efficacy", "setting": "[3]; listed as valproic acid", "value": "did not augment in vivo efficacy"},
      {"measurement": "Survival", "setting": "[3]; in vivo administration of VPA and ValloVax, established lung cancer model", "value": "Significantly Enhances Survival"},
      {"measurement": "toxicity to VPA treated ValloVax™ cells", "setting": "[4]", "value": "toxicity was observed"},
      {"measurement": "IL-10 in MLR", "setting": "[5]; FIG. 1d", "value": "no significant upregulation"},
      {"measurement": "production of IFN-gamma in MLR", "setting": "[5]; supernatants from MLR at 48 hours, FIG. 1b", "value": "substantially increased"},
      {"measurement": "production of IL-18 in MLR", "setting": "[5]; supernatants from MLR at 48 hours, FIG. 1c", "value": "substantially increased"},
      {"measurement": "viability of the ValloVax™ cells in MLR", "setting": "ValloVax™ cells [6]", "value": "dose-dependent loss of viability"},
      {"measurement": "viability of the ValloVax™ cells in MLR", "setting": "ValloVax™ cells [6]; listed as valproic acid", "value": "killing of ValloVax™ in vitro by an NK cell dependent mechanism"},
      {"measurement": "Proliferation of allogeneic responding lymphocytes (allostimulatory activity)", "setting": "[7]", "value": "not"}
    ]},
    {"molecule": "interferon gamma: cytokine used to pretreat placental endothelial cells (100 IU per ml) (protein, UniProt P01579 24-161, looked up) Interferon gamma: QDPYVKEAENLKKYFNAGHSDVADNGTLFLGILKNWKEESDRKIMQSQIVSFYFKLFKNFKDDQSIQKSVETIKEDMNVKFFNSNKKKRDDFEKLTNYSVTDLNVQRKAIHELIQVMAELSPAAKTGKRKRSQMLFRG", "values": [
      {"measurement": "Proliferation of allogeneic responding lymphocytes (allostimulatory activity)", "setting": "[7]", "value": "substantially enhanced"}
    ]}
  ]
}
